According to patent publication US11066357B2, “Benzoannulene derivatives as antiviral agents” (Southern Research Institute, priority 2017, dated 2021):

How the values were obtained:
CHIKV = assay: antiviral activity (EC50), Table 1; type: cell-based; conditions: Chikungunya virus
[1] = cytotoxicity (CC50), Table 1

SMILES	EC50 (CHIKV)	CC50 [1]
COc1cc2c(cc1C(=O)NCc1ccc(C(C)(C)C)cc1)CCCCC2 [Compound 18, N-(4-(tert.-butyl)benzyl)-3-methoxy-6,7,8,9-tetrahydro-5H-benzo[7]annulene-2-carboxamide]	3.5 µM	> 40 µM
COc1cc2c(cc1C(=O)Nc1ccc(C(C)(C)C#N)cc1)CCCCC2 [Compound 24, N-(4-(2-cyanopropan-2-yl)phenyl)-3-methoxy-6,7,8,9-tetrahydro-5H-benzo[7]annulene-2-carboxamide]	0.2 µM	> 40 µM
COc1cc2c(cc1C(=O)Nc1cccnc1SC)CCCCC2 [Compound 34, 3-methoxy-N-(2-(methylthio)pyridin-3-yl)-6,7,8,9-tetrahydro-5H-benzo[7]annulene-2-carboxamide]	> 40 µM	> 40 µM
CCn1nc(C(F)(F)F)c(NC(=O)c2cc3c(cc2OC)CCCCC3)c1C [Compound 6, N-(1-ethyl-5-methyl-3-(trifluoromethyl)-1H-pyrazol-4-yl)-3-methoxy-6,7,8,9-tetrahydro-5H-benzo[7]annulene-2-carboxamide]	35.2 µM	> 40 µM
CC(C)(C)c1ccc(NC(=O)c2cc3c(cc2O)CCCCC3)nc1 [Compound 23, N-(5-(tert.-butyl)pyridin-2-yl)-3-hydroxy-6,7,8,9-tetrahydro-5H-benzo[7]annulene-2-carboxamide]	3.8 µM	> 40 µM
CCn1nc(NC(=O)c2cc3c(cc2O)CCCCC3)cc1C [Compound 27, N-(1-ethyl-5-methyl-1H-pyrazol-3-yl)-3-hydroxy-6,7,8,9-tetrahydro-5H-benzo[7]annulene-2-carboxamide]	> 40 µM	> 40 µM
CC(C)(C)c1ccc(NC(=O)c2cc3c(cc2O)CCCCC3)cc1 [Compound 2, N-(4-(tert.-butyl)phenyl)-3-hydroxy-6,7,8,9-tetrahydro-5H-benzo[7]annulene-2-carboxamide]	1.1 µM	9.8 µM
COc1cc2c(cc1C(=O)Nc1cc(-c3ccccc3)[nH]n1)CCCCC2 [Compound 25, 3-methoxy-N-(5-phenyl-1H-pyrazol-3-yl)-6,7,8,9-tetrahydro-5H-benzo[7]annulene-2-carboxamide]	> 40 µM	> 40 µM
COc1cc2c(cc1C(=O)Nc1ccc(C(C)(C)C)cn1)CCCCC2 [Compound 11, N-(5-(tert.-butyl)pyridin-2-yl)-3-methoxy-6,7,8,9-tetrahydro-5H-benzo[7]annulene-2-carboxamide]	1.14 µM	> 40 µM
COc1cc2c(cc1C(=O)Nc1ccc(C(C)(C)C)cc1)CCCCN2 [Compound 29, N-(4-(tert.-butyl)phenyl)-8-methoxy-2,3,4,5-tetrahydro-1H-benzo[b]azepine-7-carboxamide]	24.4 µM	> 40 µM
COc1cc2c(cc1C(=O)Nc1cc(C)n(C(C)(C)C)n1)CCCCC2 [Compound 4, N-(1-(tert.-butyl)-5-methyl-1H-pyrazol-3-yl)-3-methoxy-6,7,8,9-tetrahydro-5H-benzo[7]annulene-2-carboxamide]	3.9 µM	22.3 µM
CCc1cc2c(cc1C(=O)Nc1ccc(C(C)(C)C)cc1)CCCCC2 [Compound 22, N-(4-(tert.-butyl)phenyl)-3-ethyl-6,7,8,9-tetrahydro-5H-benzo[7]annulene-2-carboxamide]	> 40 µM	> 40 µM
CCn1ccc(NC(=O)c2cc3c(cc2OC)CCCCC3)n1 [Compound 35, N-(1-ethyl-1H-pyrazol-3-yl)-3-methoxy-6,7,8,9-tetrahydro-5H-benzo[7]annulene-2-carboxamide]	17.4 µM	> 40 µM
COc1cc2c(cc1C(=O)Nc1ccc(C(C)(C)C)s1)CCCCC2 [Compound 7, N-(5-(tert.-butyl)thiophen-2-yl)-3-methoxy-6,7,8,9-tetrahydro-5H-benzo[7]annulene-2-carboxamide]	> 40 µM	> 40 µM
COc1cc2c(cc1C(=O)Nc1ccc(-c3ccccc3)cc1)CCCCC2 [Compound 15, N-([1,1′-biphenyl]-4-yl)-3-methoxy-6,7,8,9-tetrahydro-5H-benzo[7]annulene-2-carboxamide]	> 40 µM	> 40 µM
COc1cc2c(cc1C(=O)Nc1ccc(C(C)(C)O)cc1)CCCCC2 [Compound 10, N-(4-(2-hydroxypropan-2-yl)phenyl)-3-methoxy-6,7,8,9-tetrahydro-5H-benzo[7]annulene-2-carboxamide]	1.8 µM	24.9 µM
COc1cc2c(cc1C(=O)Nc1ncc(C(C)(C)C)s1)CCCCC2 [Compound 8, N-(5-(tert.-butyl)thiazol-2-yl)-3-methoxy-6,7,8,9-tetrahydro-5H-benzo[7]annulene-2-carboxamide]	9.63 µM	> 40 µM
COc1cc2c(cc1C(=O)Nc1sc(C(C)(C)C)cc1C#N)CCCCC2 [Compound 13, N-(5-(tert.-butyl)-3-cyanothiophen-2-yl)-3-methoxy-6,7,8,9-tetrahydro-5H-benzo[7]annulene-2-carboxamide]	> 40 µM	> 40 µM
COc1cc2c(cc1C(=O)NNc1ccc(C(C)(C)C)cc1)CCCCC2 [Compound 30]	> 40 µM	> 40 µM

SMILES	EC50 (CHIKV)	CC50 [1]
COc1cc2c(cc1CC(=O)N1CCC(C(C)(C)C)CC1)CCCCC2 [Compound 32, 1-(4-(tert.-butyl)piperidin-1-yl)-2-(3-methoxy-6,7,8,9-tetrahydro-5H-benzo[7]annulen-2-yl)ethan-1-one]	12.6 µM	17.3 µM
COc1cc2c(cc1C(=O)Nc1ccc(-c3ccccc3)cn1)CCCCC2 [Compound 16, 3-methoxy-N-(5-phenylpyridin-2-yl)-6,7,8,9-tetrahydro-5H-benzo[7]annulene-2-carboxamide]	> 40 µM	> 40 µM
COc1nc2c(cc1C(=O)Nc1ccc(C(C)(C)C(=O)O)cc1)CCCCC2 [Compound 40, 2-(4-(2-methoxy-6,7,8,9-tetrahydro-5H-cyclohepta[b]pyridine-3-carboxamido)phenyl)-2-methylpropanoic acid]	> 40 µM	> 40 µM
COc1cc2c(cc1C(=O)Nc1cc(C(C)(C)C)[nH]n1)CCCCC2 [Compound 26, N-(5-(tert.-butyl)-1H-pyrazol-3-yl)-3-methoxy-6,7,8,9-tetrahydro-5H-benzo[7]annulene-2-carboxamide]	7.03 µM	15.5 µM
CC(C)(C)c1ccc(NC(=O)c2ccc3c(c2)CCCCC3)cc1 [Compound 3, N-(4-(tert.-butyl)phenyl)-6,7,8,9-tetrahydro-5H-benzo[7]annulene-2-carboxamide]	1.09 µM	> 40 µM
CC(C)(C)c1ccc(NC(=O)c2cc3c(cc2O)NCCCC3)cc1 [Compound 28, N-(4-(tert.-butyl)phenyl)-8-hydroxy-2,3,4,5-tetrahydro-1H-benzo[b]azepine-7-carboxamide]	1.47 µM	> 40 µM
CCn1nc(NC(=O)c2cc3c(cc2OC)CCCCC3)cc1C [Compound 5, N-(1-ethyl-5-methyl-1H-pyrazol-3-yl)-3-methoxy-6,7,8,9-tetrahydro-5H-benzo[7]annulene-2-carboxamide]	9.9 µM	> 40 µM
COc1nc2c(cc1C(=O)Nc1ncc(C(C)(C)C)cn1)CCCCC2 [Compound 38, N-(5-(tert.-butyl)pyrimidin-2-yl)-2-methoxy-6,7,8,9-tetrahydro-5H-cyclohepta[b]pyridine-3-carboxamide]	19.4 µM	> 40 µM
CC(C)(C)c1ccc(NC(=O)c2cc3c(cc2OC(F)F)CCCCC3)cc1 [Compound 17, N-(4-(tert.-butyl)phenyl)-3-(difluoromethoxy)-6,7,8,9-tetrahydro-5H-benzo[7]annulene-2-carboxamide]	> 40 µM	> 40 µM
COc1cc2c(cc1CC(=O)Nc1ccc(C(C)(C)C)cc1)CCCCC2 [Compound 31, N-(4-(tert.-butyl)phenyl)-2-(3-methoxy-6,7,8,9-tetrahydro-5H-benzo[7]annulen-2-yl)acetamide]	30.4 µM	> 40 µM
CCn1nc(NC(=O)c2cc3c(nc2OC)CCCCC3)cc1C [Compound 39, N-(1-ethyl-5-methyl-1H-pyrazol-3-yl)-2-methoxy-6,7,8,9-tetrahydro-5H-cyclohepta[b]pyridine-3-carboxamide]	30.7 µM	> 40 µM
COc1cc2c(cc1C(=O)Nc1ccc(N3CCCS3(=O)=O)cc1)CCCCC2 [Compound 20, N-(4-(1,1-dioxidoisothiazolidin-2-yl)phenyl)-3-methoxy-6,7,8,9-tetrahydro-5H-benzo[7]annulene-2-carboxamide]	> 5 µM	> 40 µM
COc1cc2c(cc1C(=O)Nc1ccc(-c3cc[nH]n3)cc1)CCCCC2 [Compound 19, N-(4-(1H-pyrazol-3-yl)phenyl)-3-methoxy-6,7,8,9-tetrahydro-5H-benzo[7]annulene-2-carboxamide]	3.65 µM	23.2 µM
COc1cc2c(cc1CC(=O)N1CCC(F)(F)CC1)CCCCC2 [Compound 33, 1-(4,4-difluoropiperidin-1-yl)-2-(3-methoxy-6,7,8,9-tetrahydro-5H-benzo[7]annulen-2-yl)ethan-1-one]	> 40 µM	> 40 µM
COc1cc2c(cc1C(=O)Nc1ccc(OC(F)(F)F)cc1)CCCCC2 [Compound 14, 3-methoxy-N-(4-(trifluoromethoxy)phenyl)-6,7,8,9-tetrahydro-5H-benzo[7]annulene-2-carboxamide]	> 40 µM	> 40 µM
COc1cc2c(cc1C(=O)Nc1cnc(C(C)(C)C)s1)CCCCC2 [Compound 9, N-(2-(tert.-butyl)thiazol-5-yl)-3-methoxy-6,7,8,9-tetrahydro-5H-benzo[7]annulene-2-carboxamide]	> 40 µM	> 40 µM
CCOc1cc2c(cc1C(=O)Nc1ccc(C(C)(C)C)cc1)CCCCC2 [Compound 21, N-(4-(tert.-butyl)phenyl)-3-ethoxy-6,7,8,9-tetrahydro-5H-benzo[7]annulene-2-carboxamide]	29.9 µM	> 40 µM
COc1nc2c(cc1C(=O)Nc1ccc(C(C)(C)C)cc1)CCCCC2 [Compound 36, N-(4-(tert.-butyl)phenyl)-2-methoxy-6,7,8,9-tetrahydro-5H-cyclohepta[b]pyridine-3-carboxamide]	1.71 µM	> 40 µM
